Measurements: patent US20170355705A1 (GlaxoSmithKline Intellectual Property (No.2) Limited, priority 2014, published 2017)

Biological target: T1, SIRT1 (Homo sapiens, UniProt Q96EB6)
T1 sequence (Q96EB6 1-747): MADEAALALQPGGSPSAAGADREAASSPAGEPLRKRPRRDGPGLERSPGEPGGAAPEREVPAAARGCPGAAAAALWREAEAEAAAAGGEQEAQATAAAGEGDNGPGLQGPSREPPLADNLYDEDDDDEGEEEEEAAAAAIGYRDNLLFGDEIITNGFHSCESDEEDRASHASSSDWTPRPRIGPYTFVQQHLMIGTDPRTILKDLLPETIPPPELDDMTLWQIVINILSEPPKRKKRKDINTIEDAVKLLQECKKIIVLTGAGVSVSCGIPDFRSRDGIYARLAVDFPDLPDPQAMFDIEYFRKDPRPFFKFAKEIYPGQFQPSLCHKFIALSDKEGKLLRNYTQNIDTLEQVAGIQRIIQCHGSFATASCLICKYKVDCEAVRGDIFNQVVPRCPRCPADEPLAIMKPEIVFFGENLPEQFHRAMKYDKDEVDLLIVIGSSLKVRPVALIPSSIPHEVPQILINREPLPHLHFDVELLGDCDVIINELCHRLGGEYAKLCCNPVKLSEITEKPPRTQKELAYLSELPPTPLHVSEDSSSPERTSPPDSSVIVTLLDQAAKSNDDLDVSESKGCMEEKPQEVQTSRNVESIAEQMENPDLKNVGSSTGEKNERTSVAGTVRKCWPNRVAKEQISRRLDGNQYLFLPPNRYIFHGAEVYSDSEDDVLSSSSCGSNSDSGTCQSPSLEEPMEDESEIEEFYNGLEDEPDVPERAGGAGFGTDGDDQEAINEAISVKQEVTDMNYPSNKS
Assay: Trp mass spectrometry assay of SIRT1 activity (EC1.5, percent maximum activation)
Format: biochemical
Details: Trp mass spectrometry assay; for TRP Activity (EC1.5): EC1.5 = concentration giving 150% activation of SIRT1
Description: Mass spectrometry based assays were used to identify modulators of SIRT1 activity. […] The peptide was labeled with the fluorophore 5TMR (excitation 540 nm/emission 580 nm) at the C-terminus. The sequence of the peptide substrate was based on p53 with several modifications. In addition, the methionine residue naturally present in the sequence was replaced with the norleucine because the methionine may be susceptible to oxidation during synthesis and purification.
The Trp mass spectrometry assay was conducted as follows. […] The SIRT1 protein was obtained by cloning the SirT1 gene into a T7-promoter containing vector, which was then expressed in BL21(DE3) bacterial cells and purified as described in further detail below. Test compound was added at varying concentrations to this reaction mixture and the resulting reactions were monitored. After the 25 minute incubation with SIRT1, 10 μL of 10% formic acid was added to stop the reaction. The resulting reactions were sealed and frozen for later mass spec analysis. The relative SIRT1 activity was then determined by measuring the amount of O-acetyl-ADP-ribose (OAADPR) formed (or, alternatively, the amount of deacetylated Trp peptide generated) by the NAD-dependent sirtuin deacetylation reaction in the presence of varying concentrations of the test compound versus control reactions lacking the test compound. The degree to which the test agent activated deacetylation by SIRT1 was expressed as EC1.5 (i.e., the concentration of compound required to increase SIRT1 activity by 50% over the control lacking test compound), and Percent Maximum Activation (i.e., the maximum activity relative to control (100%) obtained for the test compound).
This time point was the same as that used for test compounds and, within the linear range, the endpoint represents a change in velocity.
For the above assay, SIRT1 protein was expressed and purified as follows. The SirT1 gene was cloned into a T7-promoter containing vector and transformed into BL21(DE3). The protein was expressed by induction with 1 mM IPTG as an N-terminal His-tag fusion protein at 18° C. overnight and harvested at 30,000×g. Cells were lysed with lysozyme in lysis buffer (50 mM Tris-HCl, 2 mM Tris[2-carboxyethyl]phosphine (TCEP), 10 μM ZnCl2, 200 mM NaCl) and further treated with sonication for 10 min for complete lysis. The protein was purified over a Ni-NTA column (Amersham) and fractions containing pure protein were pooled, concentrated and run over a sizing column (Sephadex S200 26/60 global). The peak containing soluble protein was collected and run on an Ion-exchange column (MonoQ). Gradient elution (200 mM-500 mM NaCl) yielded pure protein. This protein was concentrated and dialyzed against dialysis buffer (20 mM Tris-HCl, 2 mM TCEP) overnight. The protein was aliquoted and frozen at −80° C. until further use.
“NT” means not tested; “ND” means not determinable.

[1] = percent maximum activation of SIRT1
[2] = 0.5 μM peptide substrate, 120 μM βNAD+, 10 nM SIRT1, 25 minutes at 25° C.

Row | Structure (SMILES) | TRP Activity (EC1.5) | TRP MAX RESP (percent maximum fold activation) [1] | TRP Activity (EC1.5, concentration of test compound that results in 150% activation of SIRT1) [2] | TRP MAX RESP (percent maximum fold activation) [2]
1 | Cl.O=C(NC1CC1)N1c2nc(-c3cccc(C(F)(F)F)c3)c(Cl)cc2N2CC[C@H]1C2 [Example 53, (4S)-8-chloro-N-cyclopropyl-7-(3-(trifluoromethyl)phenyl)-3,4-dihydro-1,4-methanopyrido[2,3-b][1,4]diazepine-5(2H)-carboxamide Hydrochloride] | A (EC1.5<1 μM) | A (Fold activation ≧150%) |  | 
2 | CN(C)c1cccc(-c2ccc3c(n2)N(C(=O)Nc2cnccn2)[C@H]2CCN3C2)c1 [Example 172, (4S)-7-(3-(dimethylamino)phenyl)-N-(pyrazin-2-yl)-3,4-dihydro-1,4-methanopyrido[2,3-b][1,4]diazepine-5(2H)-carboxamide] | B (EC1.5 1-25 μM) | A (Fold activation ≧150%) |  | 
3 | O=C(Nc1ccnc(OC[C@H](O)CO)c1)N1c2nc(-c3cccc(C(F)(F)F)c3)ccc2N2CC[C@H]1C2 [Example 132, (4S)-N-(2-((R)-2,3-dihydroxypropoxy)pyridin-4-yl)-7-(3-(trifluoromethyl)phenyl)-3,4-dihydro-1,4-methanopyrido[2,3-b][1,4]diazepine-5(2H)-carboxamide] | A (EC1.5<1 μM) | A (Fold activation ≧150%) |  | 
4 | NC(=O)N1c2nc(-c3cccc(C(F)(F)F)c3)ccc2N2CC[C@H]1C2 [Example 379, (4S)-7-(3-(trifluoromethyl)phenyl)-3,4-dihydro-1,4-methanopyrido[2,3-b][1,4]diazepine-5(2H)-carboxamide] |  |  | C (EC1.5>25 μM) | B (Fold Activation <150%)
5 | Cc1cc(-c2ccc3c(n2)N(C(=O)N2CCO[C@@H](C)C2)[C@H]2CCN3C2)ccn1.Cl [Example 234, ((S)-2-methylmorpholino)((4S)-7-(2-methylpyridin-4-yl)-3,4-dihydro-1,4-methanopyrido[2,3-b][1,4]diazepin-5(2H)-yl)methanone hydrochloride] |  |  | C (EC1.5>25 μM) | B (Fold Activation <150%)
6 | CN(C)c1cc(-c2ccc3c(n2)N(C(=O)Nc2cnccn2)[C@H]2CCN3C2)ccn1 [Example 179, (4S)-7-(2-(dimethylamino)pyridin-4-yl)-N-(pyrazin-2-yl)-3,4-dihydro-1,4-methanopyrido[2,3-b][1,4]diazepine-5(2H)-carboxamide] | B (EC1.5 1-25 μM) | A (Fold activation ≧150%) |  | 
7 | O=C(Nc1ccc(OC[C@@H](O)CO)cn1)N1c2nc(-c3cccc(C(F)(F)F)c3)c(Cl)cc2N2CC[C@H]1C2 [Example 81, (4S)-8-chloro-N-(5-((S)-2,3-dihydroxypropoxy)pyridin-2-yl)-7-(3-(trifluoromethyl)phenyl)-3,4-dihydro-1,4-methanopyrido[2,3-b][1,4]diazepine-5(2H)-carboxamide] | B (EC1.5 1-25 μM) | A (Fold activation ≧150%) |  | 
8 | Cc1cc(-c2nc3c(cc2Cl)N2CC[C@@H](C2)N3C(=O)Nc2ccnc(OC[C@@H](O)CO)c2)ccn1 [Example 37, (4S)-8-chloro-N-(2-((S)-2,3-dihydroxypropoxy)pyridin-4-yl)-7-(2-methylpyridin-4-yl)-3,4-dihydro-1,4-methanopyrido[2,3-b][1,4]diazepine-5(2H)-carboxamide] | B (EC1.5 1-25 μM) | A (Fold activation ≧150%) |  | 
9 | Cc1ccc(-c2nc3c(cc2C)N2CC[C@@H](C2)N3C(=O)Nc2ccccn2)cn1 [Example 8, (4S)-8-methyl-7-(6-methylpyridin-3-yl)-N-(pyridin-2-yl)-3,4-dihydro-1,4-methanopyrido[2,3-b][1,4]diazepine-5(2H)-carboxamide] | B (EC1.5 1-25 μM) | A (Fold activation ≧150%) |  | 
10 | Cc1cc(-c2ccc3c(n2)N(C(=O)Nc2cc(-c4coc(C)n4)ccn2)[C@H]2CCN3C2)ccn1.Cl [Example 334, (4S)-N-(4-(2-methyloxazol-4-yl)pyridin-2-yl)-7-(2-methylpyridin-4-yl)-3,4-dihydro-1,4-methanopyrido[2,3-b][1,4]diazepine-5(2H)-carboxamide] |  |  | A (EC1.5<1 μM) | A (Fold activation ≧150%)
11 | N#Cc1cc2c(nc1-c1cccc(C(F)(F)F)c1)N(C(=O)Nc1ccnc(OC[C@@H](O)CO)c1)[C@H]1CCN2C1 [Example 104, (4S)-8-cyano-N-(2-((S)-2,3-dihydroxypropoxy)pyridin-4-yl)-7-(3-(trifluoromethyl)phenyl)-3,4-dihydro-1,4-methanopyrido[2,3-b][1,4]diazepine-5(2H)-carboxamide] | A (EC1.5<1 μM) | A (Fold activation ≧150%) |  | 

The next lines start with the values.

Row | TRP Activity (EC1.5) | TRP MAX RESP (percent maximum fold activation) [1] | TRP Activity (EC1.5, concentration of test compound that results in 150% activation of SIRT1) [2] | TRP MAX RESP (percent maximum fold activation) [2] | Structure (SMILES)
12 | B (EC1.5 1-25 μM) | A (Fold activation ≧150%) |  |  | Cc1cc(-c2ccc3c(n2)N(C(=O)Nc2cnccn2)[C@H]2CCN3C2)c(C)cn1 [Example 159, (4S)-7-(2,5-dimethylpyridin-4-yl)-N-(pyrazin-2-yl)-3,4-dihydro-1,4-methanopyrido[2,3-b][1,4]diazepine-5(2H)-carboxamide]
13 | B (EC1.5 1-25 μM) | A (Fold activation ≧150%) |  |  | CCc1ccc(-c2ccc3c(n2)N(C(=O)Nc2cnccn2)[C@H]2CCN3C2)cn1 [Example 156, (4S)-7-(6-ethylpyridin-3-yl)-N-(pyrazin-2-yl)-3,4-dihydro-1,4-methanopyrido[2,3-b][1,4]diazepine-5(2H)-carboxamide]
14 |  |  | B (EC1.5 1-25 μM) | A (Fold activation ≧150%) | CN1CCN(c2ccc3c(n2)N(C(=O)Nc2cnccn2)[C@H]2CCN3C2)CC1 [Example 206, (4S)-7-(4-methylpiperazin-1-yl)-N-(pyrazin-2-yl)-3,4-dihydro-1,4-methanopyrido[2,3-b][1,4]diazepine-5(2H)-carboxamide]
15 |  | A (Fold activation ≧150%) |  |  | C[C@H]1CN(c2ccc3c(n2)N(C(=O)Nc2cnccn2)[C@H]2CCN3C2)CCO1 [Example 125, (4S)-7-((S)-2-methylmorpholino)-N-(pyrazin-2-yl)-3,4-dihydro-1,4-methano pyrido[2,3-b][1,4]diazepine-5(2H)-carboxamide]
16 | B (EC1.5 1-25 μM) | A (Fold activation ≧150%) |  |  | O=C(Nc1cnccn1)N1c2nc(N3CCOCC3)ccc2N2CC[C@H]1C2 [Example 160, (4S)-7-morpholino-N-(pyrazin-2-yl)-3,4-dihydro-1,4-methanopyrido[2,3-b][1,4]diazepine-5(2H)-carboxamide]
17 |  |  | C (EC1.5>25 μM) | B (Fold Activation <150%) | CC1CNCCN1c1ccc2c(n1)N(C(=O)Nc1cnccn1)[C@H]1CCN2C1 (single isomer, unassigned) [Example 228]
